Patent US20130102752A1, “BENZINDOCYANINE COMPOUND FOR LABELING SUBSTANCE, INTERMEDIATE THEREOF, AND METHOD FOR PREPARING THE SAME” (DKC CORPORATION, priority 2010, published 2013)

Assays:
[1] = Absorption wavelength of the synthesized dye (HP 8452 diode array spectrophotometer); assay type: physicochemical
Description: (§1) First, the experimental apparatuses, analytical instruments and reagents used in the examples and experiments are described. Bruker's Avance 300 and 400 were used for FT-NMR spectroscopy, and the Voyager MALDI-TOF DE mass spectrometer was used for MALDI-TOF M/S. Absorption wavelength of the synthesized dye and the absorbance at maximum absorption wavelength were measured using Hewlett-Packard's HP 8452 diode array spectrophotometer. Emission wavelength and light emission at maximum emission wavelength were measured using Perkin Elmer's LS-55.

[2] = Emission wavelength at maximum emission (Perkin Elmer LS-55); assay type: physicochemical
Description: as §1

[3] = tested on: marker proteins (Amersham LMW calibration kit: phosphorylase b, albumin, ovalbumin, carbonic anhydrase, trypsin inhibitor, α-lactalbumin); assay: Staining of proteins, separated by gel electrophoresis, fluorescence image; settings: 0.1M phosphate buffer pH 9.0, room temperature, 1 hour; electrophoresis 125 V, 2 hours
Description: Gel electrophoresis was carried out using Bio-Rad's PowerPac Basic Power Supply (Catalog No. 164-5050) coupled to the Amersham Biosciences's SE260 mini-vertical gel electrophoresis unit. Lonza's PAGEr Gold Precast Gels (polyacrylamide gels for protein electrophoresis, 10-20% Tris-glycine gels, Catalog No. 59506) were used as gels. Running and loading buffers for SDS-PAGE were prepared as follows prior to use.
Size markers commercially available from GE Healthcare and Takara were used as proteins. Perkin Elmer's Geliance 600 was used for observation of labeled biomolecules and measurement of fluorescence intensity. Geliance UV Epi (Catalog No. L7110026) and Geliance Blue Epi (Catalog No. L7110027) were used as light sources. Measurement was carried out using UV filter, Geliance short-pass filter (500-600 nm), Geliance long-pass filter (580-660 nm) and Geliance blue light filter (550-600 nm) while changing the filters in accordance with fluorescence wavelengths.
Each vial of one pack of Amersham™ LMW calibration kit (17-0446-01) for SDS electrophoresis commercially available from GE Healthcare contains 576 μg of six marker proteins, which are phosphorylase b (97 kD, 67 μg), albumin (66 kD, 83 μg), ovalbumin (45 kD, 147 μg), carbonic anhydrase (30 kD, 83 μg), trypsin inhibitor (20.1 kD, 80 μg) and α-lactalbumin (14.4 kD, 116 μg). […]

| Structure (SMILES) | λabs (water) [1] [nm] | λfl (water) [2] [nm] | visibility of stained proteins after gel electrophoresis (FIG. 1) [3] | λabs (methanol) [1] [nm] | λfl (methanol) [2] [nm] |
| --- | --- | --- | --- | --- | --- |
| C=CS(=O)(=O)CCNC(=O)CCCCCN1/C(=C/C=C/C=C/C2=[N+](CC)c3ccc4c(S(=O)(=O)[O-])cc(S(=O)(=O)O)cc4c3C2(C)C)C(C)(C)c2c1ccc1c(S(=O)(=O)O)cc(S(=O)(=O)O)cc21 [Compound 1-1] | 675 | 695 | discernible with naked eyes | – | – |
| CC[N+]1=C(/C=C/C=C2/N(CCCCCC(=O)O)c3ccc4c(S(=O)(=O)O)cc(S(=O)(=O)O)cc4c3C2(C)C)C(C)(C)c2c1ccc1c(S(=O)(=O)[O-])cc(S(=O)(=O)O)cc21 | 579 | 594 | – | – | – |
| C=CS(=O)(=O)CCNC(=O)CCCCCN1/C(=C/C=C/C=C/C=C/C2=[N+](CC)c3ccc4c(S(=O)(=O)[O-])cc(S(=O)(=O)O)cc4c3C2(C)C)C(C)(C)c2c1ccc1c(S(=O)(=O)O)cc(S(=O)(=O)O)cc21 [Compound 1-2] | 777 | 803 | discernible with naked eyes | – | – |
| C=CS(=O)(=O)CCNC(=O)CCCCCCCN1/C(=C/C=C/C=C/C2=[N+](CC)c3ccc4c(S(=O)(=O)O)cc(S(=O)(=O)[O-])cc4c3C2(C)C)C(C)(C)c2c1ccc1c(S(=O)(=O)O)cc(S(=O)(=O)O)cc21 [Compound 1-5] | 675 | 704 | – | – | – |
| CC[N+]1=C(/C=C/C=C/C=C2/N(CCCCCCCC(=O)O)c3ccc4c(S(=O)(=O)O)cc(S(=O)(=O)O)cc4c3C2(C)C)C(C)(C)c2c1ccc1c(S(=O)(=O)O)cc(S(=O)(=O)[O-])cc21 [Compound 10-5] | 675 | 704 | – | – | – |
| C=CS(=O)(=O)CCNC(=O)CCCCCN1/C(=C/C=C/C=C/C2=[N+](CC)c3ccc4ccccc4c3C2(C)C)C(C)(C)c2c1ccc1ccccc21 [Compound 1-4] | – | – | – | 680 | 710 |
| CC[N+]1=C(/C=C/C=C/C=C2/N(CCCCCC(=O)O)c3ccc4c(S(=O)(=O)O)cc(S(=O)(=O)O)cc4c3C2(C)C)C(C)(C)c2c1ccc1c(S(=O)(=O)[O-])cc(S(=O)(=O)O)cc21 [Compound 10-1] | 675 | 695 | – | – | – |
| CC[N+]1=C(/C=C/C=C/C=C2/N(CCCCCC(=O)O)c3ccc4ccccc4c3C2(C)C)C(C)(C)c2c1ccc1ccccc21 [Compound 10-4] | – | – | – | 697 | 713 |
| CC[N+]1=C(/C=C/C=C/C=C/C=C2/N(CCCCCC(=O)O)c3ccc4c(S(=O)(=O)O)cc(S(=O)(=O)O)cc4c3C2(C)C)C(C)(C)c2c1ccc1c(S(=O)(=O)[O-])cc(S(=O)(=O)O)cc21 [Compound 10-3] | 777 | 803 | – | – | – |
| C=CS(=O)(=O)CCNC(=O)CCCCCN1/C(=C/C=C/C2=[N+](CC)c3ccc4c(S(=O)(=O)[O-])cc(S(=O)(=O)O)cc4c3C2(C)C)C(C)(C)c2c1ccc1c(S(=O)(=O)O)cc(S(=O)(=O)O)cc21 [Compound 1-3] | 579 | 594 | – | – | – |
